35 molecules from PubChem BioAssay AID651650 (Sanford-Burnham Center for Chemical Genomics, 2012) can be followed below.

Active and inactive are the calls of the source.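 The calls were made as follows: active = mean IC50 below 20 µM in each of the two panels, so potent in both; inactive = the rest.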

The assay addresses Neuropilin-1 (Homo sapiens) (UniProt O14786). Nature of the assay: NRP-1 b1b2 CendR peptide binding inhibitors, dose response, biochemical, FP and AlphaScreen panel (AID 651650). The note with it: NRP-1 b1b2 / RPARPAR peptide binding, FP or AlphaScreen.
Where [1] appears, read: AlphaScreen, run 1, individual panel run IC50.
Where [2] appears, read: FP, run 1, individual panel run IC50.
Where [3] appears, read: FP, run 2, individual panel run IC50.

Chain of Neuropilin-1 (Homo sapiens) (O14786 whole entry, looked up): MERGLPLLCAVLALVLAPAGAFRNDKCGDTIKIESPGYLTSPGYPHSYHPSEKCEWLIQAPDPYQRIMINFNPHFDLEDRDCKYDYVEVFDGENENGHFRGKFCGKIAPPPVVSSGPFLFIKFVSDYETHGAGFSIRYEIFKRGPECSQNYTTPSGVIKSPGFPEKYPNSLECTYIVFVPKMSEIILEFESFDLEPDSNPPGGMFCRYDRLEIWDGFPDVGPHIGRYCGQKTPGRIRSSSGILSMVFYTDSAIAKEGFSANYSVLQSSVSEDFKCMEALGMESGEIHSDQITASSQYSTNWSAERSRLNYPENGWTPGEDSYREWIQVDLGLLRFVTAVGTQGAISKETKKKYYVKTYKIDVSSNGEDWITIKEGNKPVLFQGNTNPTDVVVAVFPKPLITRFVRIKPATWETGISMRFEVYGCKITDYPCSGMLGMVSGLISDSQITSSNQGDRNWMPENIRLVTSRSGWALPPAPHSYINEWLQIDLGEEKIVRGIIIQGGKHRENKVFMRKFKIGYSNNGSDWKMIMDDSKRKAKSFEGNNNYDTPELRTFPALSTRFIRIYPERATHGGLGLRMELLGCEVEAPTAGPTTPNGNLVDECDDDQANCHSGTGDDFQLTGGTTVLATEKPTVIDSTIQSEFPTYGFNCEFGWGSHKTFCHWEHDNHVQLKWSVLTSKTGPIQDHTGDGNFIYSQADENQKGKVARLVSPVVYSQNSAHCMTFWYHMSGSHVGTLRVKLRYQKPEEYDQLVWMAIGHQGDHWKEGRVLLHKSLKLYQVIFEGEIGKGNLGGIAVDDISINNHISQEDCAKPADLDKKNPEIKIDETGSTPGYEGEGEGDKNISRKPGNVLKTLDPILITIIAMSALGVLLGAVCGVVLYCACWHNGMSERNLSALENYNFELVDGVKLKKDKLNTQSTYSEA

`CC(=O)NC(c1cccc(F)c1)c1nc(-c2cccc(C(F)(F)F)c2)cs1` (stereo not given): the IC50 (AlphaScreen, mean of runs) was > 100 µM (inactive); the IC50 under setting [1] was > 100 µM; the IC50 (FP, mean of runs) is > 95 µM (inactive); the IC50 under setting [2] was > 95 µM; the IC50 under setting [3] was > 95 µM.
Consider `CC(C)NC(=O)c1c(CSc2ccccc2)noc1C(=O)NCc1ccccc1`, for which the IC50 was > 100 µM (inactive) (AlphaScreen, mean of runs); > 100 µM under setting [1]; > 95 µM (inactive) (FP, mean of runs); > 95 µM under setting [2]; > 95 µM under setting [3].
In the case of `CC(=O)C(C(c1ccccc1)N1CCCc2ccccc21)N1CCOCC1` (stereo not given), the IC50 result (AlphaScreen, mean of runs) is “inactive”. The IC50 was 72.2 µM under setting [1]; > 95 µM (inactive) (FP, mean of runs); > 95 µM under setting [2]; > 95 µM under setting [3].
For `CC(C)(C)OC(=O)NCc1ccc(CNC(=O)c2nc[nH]c2C(=O)N2CCN(C(=O)OC(C)(C)C)CC2)cc1`, the IC50 (AlphaScreen, mean of runs) was > 100 µM (inactive); the IC50 under setting [1] is > 100 µM; the IC50 (FP, mean of runs) is > 95 µM (inactive); the IC50 under setting [2] is > 95 µM; the IC50 under setting [3] is > 95 µM.
In the case of `Cc1c(NP(=O)(C(C)(C)C)C(C)(C)C)c(=O)n(-c2ccccc2)n1C`, the IC50 (AlphaScreen, mean of runs) is > 100 µM (inactive); the IC50 under setting [1] was > 100 µM; the IC50 (FP, mean of runs) is > 95 µM (inactive); the IC50 under setting [2] is > 95 µM; the IC50 under setting [3] is > 95 µM.
`Cc1nnc(SC(C)C(=O)Nc2ccc(S(=O)(=O)NC3CCCCC3)cc2)s1` (stereo not given): the IC50 was > 100 µM (inactive) (AlphaScreen, mean of runs); > 100 µM under setting [1]; > 95 µM (inactive) (FP, mean of runs); > 95 µM under setting [2]; > 95 µM under setting [3].
Consider `COC(=O)C[C@H]1c2cc(F)ccc2S(=O)(=O)N1C(C)C`, for which the IC50 reads like this: (AlphaScreen, mean of runs) > 100 µM (inactive); under setting [1], > 100 µM; (FP, mean of runs) > 95 µM (inactive); under setting [2], > 95 µM; under setting [3], > 95 µM.
Consider `COc1ccc(CCN=C2SCC(=O)N2Cc2ccccc2)cc1OC`, for which the IC50 runs as follows: (AlphaScreen, mean of runs) > 100 µM (inactive); under setting [1], > 100 µM; (FP, mean of runs) > 95 µM (inactive); under setting [2], > 95 µM; under setting [3], > 95 µM.
As for `CCCc1c(C)nc(N2CCN(c3ccccc3OC)CC2)[nH]c1=O`, the IC50 reads like this: (AlphaScreen, mean of runs) > 100 µM (inactive); under setting [1], > 100 µM; (FP, mean of runs) > 95 µM (inactive); under setting [2], > 95 µM; under setting [3], > 95 µM.
For `c1ccc(OCCCN2CCCC2)cc1`, the IC50 was > 100 µM (inactive) (AlphaScreen, mean of runs); > 100 µM under setting [1]; > 95 µM (inactive) (FP, mean of runs); > 95 µM under setting [2]; > 95 µM under setting [3].
For `Cc1cc(NC(=O)CCC(=O)NNC(=O)c2ccc(C(C)(C)C)cc2)no1`, the IC50 is 8.63 µM (AlphaScreen, mean of runs); 8.63 µM under setting [1]; > 95 µM (inactive) (FP, mean of runs); > 95 µM under setting [2]; > 95 µM under setting [3].
For the molecule `CN(Cc1cnn(C)c1)C(=O)c1cc2ccccc2oc1=O`, the IC50 (AlphaScreen, mean of runs) was > 100 µM (inactive); the IC50 under setting [1] was > 100 µM; the IC50 (FP, mean of runs) is > 95 µM (inactive); the half-inhibitory concentration (IC50) under setting [2] is > 95 µM; the IC50 under setting [3] is > 95 µM.
Consider `CCOC(=O)c1ccc(N2CCN(C(=O)c3ccccc3)CC2)c(NC(=O)c2ccco2)c1`, for which the IC50 is > 100 µM (inactive) (AlphaScreen, mean of runs); > 100 µM under setting [1]; > 95 µM (inactive) (FP, mean of runs); > 95 µM under setting [2]; > 95 µM under setting [3].
Take `Cc1cccc(NC(=O)c2ccc(OCc3c(C)noc3C)cc2)c1`: the half-maximal inhibitory concentration (IC50) is, setting by setting: (AlphaScreen, mean of runs) 17.8 µM; under setting [1], 17.8 µM; (FP, mean of runs) > 95 µM (inactive); under setting [2], > 95 µM; under setting [3], > 95 µM.
For `CC(C)(C)n1cnc2cc(NC(=O)c3ccccc3)ccc21`, the IC50 (AlphaScreen, mean of runs) was 17 µM; the IC50 under setting [1] is 17 µM; the IC50 (FP, mean of runs) is > 95 µM (inactive); the IC50 under setting [2] was > 95 µM; the half-inhibitory concentration (IC50) under setting [3] was > 95 µM.
For `O=C1CCC/C=C\C[C@@H](CC(=O)N(CCO)Cc2ccccc2)C(=O)N2CCC[C@H]2CO1`, the IC50 was > 100 µM (inactive) (AlphaScreen, mean of runs); > 100 µM under setting [1]; > 95 µM (inactive) (FP, mean of runs); > 95 µM under setting [2]; > 95 µM under setting [3].
As for `Cc1ccc(C(=O)N2CCN(C34CC5CC(CC(C5)C3)C4)CC2)o1`, the IC50 result (AlphaScreen, mean of runs) is “inactive”. Moreover, the half-maximal inhibitory concentration (IC50) is, setting by setting: under setting [1], 75.4 µM; (FP, mean of runs) > 95 µM (inactive); under setting [2], > 95 µM; under setting [3], > 95 µM.
For the molecule `CC(=O)Nc1ccc(NC(=O)C2CC(=O)N=C(N)S2)cc1` (stereo not given), the IC50 (AlphaScreen, mean of runs) was > 100 µM (inactive); the IC50 under setting [1] is > 100 µM; the IC50 (FP, mean of runs) is > 95 µM (inactive); the half-inhibitory concentration (IC50) under setting [2] is > 95 µM; the half-inhibitory concentration (IC50) under setting [3] was > 95 µM.
Turning to `NS(=O)(=O)c1cccnc1Nc1cccc(Cl)c1Cl`, the IC50 reads like this: (AlphaScreen, mean of runs) > 100 µM (inactive); under setting [1], > 100 µM; (FP, mean of runs) > 95 µM (inactive); under setting [2], > 95 µM; under setting [3], > 95 µM.
On to `COC/C=C/C1=CC2=CC(=O)C(C)(OC(=O)c3cnc4ccccc4n3)C(=O)C2=CN1Cc1ccc(OC)cc1` (stereo not given), for which the IC50 entry (AlphaScreen, mean of runs) is “inactive”. The IC50 is 46.4 µM under setting [1]; > 95 µM (inactive) (FP, mean of runs); > 95 µM under setting [2]; > 95 µM under setting [3].
Turning to `CC(=O)Nc1ccc(Oc2cc(C#N)c(C#N)cc2N2CCOCC2)cc1`, the IC50 (AlphaScreen, mean of runs) was > 100 µM (inactive); the IC50 under setting [1] is > 100 µM; the IC50 (FP, mean of runs) is > 95 µM (inactive); the IC50 under setting [2] is > 95 µM; the IC50 under setting [3] was > 95 µM.
With `C/C(=N\NC(=O)c1cc(O)ccc1O)c1cccc(NC(=O)c2cccc(Cl)c2)c1`, the IC50 (AlphaScreen, mean of runs) is > 100 µM (inactive); the half-inhibitory concentration (IC50) under setting [1] was > 100 µM; the IC50 (FP, mean of runs) is > 95 µM (inactive); the IC50 under setting [2] is > 95 µM; the IC50 under setting [3] was > 95 µM.
Take `Cn1c(=O)c2[nH]c(NCCCN3CCOCC3)nc2n(C)c1=O`: the IC50 runs as follows: (AlphaScreen, mean of runs) > 100 µM (inactive); under setting [1], > 100 µM; under setting [2], > 95 µM; under setting [3], 56.1 µM. Moreover, under “FP, mean of runs”, the IC50 entry was “inactive”.
For `O=C(O)c1ccc(C(=O)Nc2cccc3ccccc23)c(C(=O)O)c1`, in that order: “inactive”, 49.3 µM, > 95 µM, > 95 µM and > 95 µM (inactive).
As for `Cc1onc(-c2ccc(Cl)cc2Cl)c1-c1csc(COc2ccccc2)n1`, the IC50 entry (AlphaScreen, mean of runs) is “inactive”. The IC50 was 59.1 µM under setting [1]; > 95 µM (inactive) (FP, mean of runs); > 95 µM under setting [2]; > 95 µM under setting [3].
With `COc1cc2c(cc1OC)C(Nc1ccc(S(N)(=O)=O)cc1)=NC(C)(C)C2`, the IC50 entry (AlphaScreen, mean of runs) is “inactive”. The IC50 reads like this: under setting [1], 51.8 µM; (FP, mean of runs) > 95 µM (inactive); under setting [2], > 95 µM; under setting [3], > 95 µM.
Regarding `CC(=O)/C(=N\Nc1ccc(Cl)cc1Cl)Sc1cccc2cccnc12`, the IC50 reads like this: (AlphaScreen, mean of runs) > 100 µM (inactive); under setting [1], > 100 µM; (FP, mean of runs) > 95 µM (inactive); under setting [2], > 95 µM; under setting [3], > 95 µM.
With `CCCCCCCN1C(Nc2ccccc2)=NC[C@@H]1Cc1ccccc1`, the IC50 is > 100 µM (inactive) (AlphaScreen, mean of runs); > 100 µM under setting [1]; > 95 µM (inactive) (FP, mean of runs); > 95 µM under setting [2]; > 95 µM under setting [3].
As for `CC(Nc1nc(-c2ccc(F)cc2)cs1)c1nc2cc(C(F)(F)F)ccc2n1CCOCCO` (stereo not given), the IC50 is > 100 µM (inactive) (AlphaScreen, mean of runs); > 100 µM under setting [1]; > 95 µM (inactive) (FP, mean of runs); > 95 µM under setting [2]; > 95 µM under setting [3].
As to `COc1cc(C(=O)OCCCOC(=O)c2cc(OC)c(OC)c(OC)c2)cc(OC)c1OC`, the IC50 is > 100 µM (inactive) (AlphaScreen, mean of runs); > 100 µM under setting [1]; > 95 µM (inactive) (FP, mean of runs); > 95 µM under setting [2]; > 95 µM under setting [3].
For `NC(=S)NNC(=S)Nc1ccccc1`, the IC50 (AlphaScreen, mean of runs) is > 100 µM (inactive); the half-inhibitory concentration (IC50) under setting [1] is > 100 µM; the IC50 (FP, mean of runs) was > 95 µM (inactive); the IC50 under setting [2] is > 95 µM; the IC50 under setting [3] was > 95 µM.
With `CC(C)(C)c1nc(SCC(=O)NCc2ccco2)c2ccccc2n1`, the IC50 entry (AlphaScreen, mean of runs) was “inactive”. The IC50 reads like this: under setting [1], 28 µM; (FP, mean of runs) > 95 µM (inactive); under setting [2], > 95 µM; under setting [3], > 95 µM.
As for `COC(=O)c1ccccc1NC(=O)CSc1nc(C)cc(C)n1`, the IC50 reads like this: (AlphaScreen, mean of runs) > 100 µM (inactive); under setting [1], > 100 µM; (FP, mean of runs) > 95 µM (inactive); under setting [2], > 95 µM; under setting [3], > 95 µM.
For `Cc1ccc(/C=N/Nc2nc3ccccc3[nH]2)s1`, the IC50 runs as follows: (AlphaScreen, mean of runs) > 100 µM (inactive); under setting [1], > 100 µM; (FP, mean of runs) > 95 µM (inactive); under setting [2], > 95 µM; under setting [3], > 95 µM.
As for `Cc1ccc(Cn2nnnc2CN2CCC(n3nnc4ccccc43)CC2)cc1`, the IC50 by setting is: (AlphaScreen, mean of runs) > 100 µM (inactive); under setting [1], > 100 µM; (FP, mean of runs) > 95 µM (inactive); under setting [2], > 95 µM; under setting [3], > 95 µM.
